These are literature values, as cited in PMC10800708, “Efficacies and ADME properties of redox active methylene blue and phenoxazine analogues for use in new antimalarial triple drug combinations with amino-artemisinins” (Frontiers in Pharmacology, 2024).

What is called half-life is the time in which the quantity being followed falls by half.

Details of data set [1]: method as in Agency, 2009. The following applies: ref Agency, 2009; cited from earlier work.
Data set [2] deals with asexual blood stage of P. falciparum. Details: method as in Coertzen et al., 2018. The following applies: ref Coertzen et al., 2018; cited from earlier work.
The test system of data set [3] is gametocytes. Details: method as in Coertzen et al., 2018. The following applies: ref Coertzen et al., 2018; cited from earlier work.
For data set [4] the following is noted: human, in vivo; cited from earlier work.
Data set [5] relates to multidrug resistant Pf K1 strain. Details: method as in Wittlin et al., 2013. Conditions: tritiated hypoxanthine assay; ref Wittlin et al., 2013; read-out: Activity against multidrug resistant Pf K1 strain; cited from earlier work.
Details of data set [6]: method as in Wittlin et al., 2013. Conditions: ref Wittlin et al., 2013; cited from earlier work.
Details of data set [7]: method as in Gibhard et al., 2021. Conditions: murine model, ref Gibhard et al., 2021; cited from earlier work.

Structures are written as SMILES.

Take `CN(C)c1ccc2nc3ccc(=[N+](C)C)cc-3sc2c1` [MB, methylene blue]: the Protein bound in data set [1] is 94%. The “Interaction with artemisone against the asexual blood stage” value in data set [2] is recorded as “only an additive effect”. In addition, the “Interaction with artemisone, gametocytocidal activity” value in data set [3] was “synergistically enhanced”. Also, in data set [4], the Bioavailability is recorded as 72.3± 23.9% and the Mean terminal half-life is recorded as 5.25 h.

With `CCN(CC)c1ccc2nc3c4ccccc4/c(=N\c4ccncc4)cc-3oc2c1` [SSJ-183], in data set [5], the IC50 was 7.6 nM. Besides, the half-life in data set [6] was 10.3 h.

Regarding `C[C@H]1[C@H](N2CCSCC2)O[C@@H]2O[C@@]3(C)CC[C@H]4[C@H](C)CC[C@@H]1[C@@]24OO3` [artemiside], the “Cmax relative to that after oral administration of artemisone” value in data set [7] is listed as 2.6 fold.
